In the first experiment the target is T1, TACE (Homo sapiens, UniProt P78536).
T1 construct: purchased Immunex
T1 sequence (P78536 215-824): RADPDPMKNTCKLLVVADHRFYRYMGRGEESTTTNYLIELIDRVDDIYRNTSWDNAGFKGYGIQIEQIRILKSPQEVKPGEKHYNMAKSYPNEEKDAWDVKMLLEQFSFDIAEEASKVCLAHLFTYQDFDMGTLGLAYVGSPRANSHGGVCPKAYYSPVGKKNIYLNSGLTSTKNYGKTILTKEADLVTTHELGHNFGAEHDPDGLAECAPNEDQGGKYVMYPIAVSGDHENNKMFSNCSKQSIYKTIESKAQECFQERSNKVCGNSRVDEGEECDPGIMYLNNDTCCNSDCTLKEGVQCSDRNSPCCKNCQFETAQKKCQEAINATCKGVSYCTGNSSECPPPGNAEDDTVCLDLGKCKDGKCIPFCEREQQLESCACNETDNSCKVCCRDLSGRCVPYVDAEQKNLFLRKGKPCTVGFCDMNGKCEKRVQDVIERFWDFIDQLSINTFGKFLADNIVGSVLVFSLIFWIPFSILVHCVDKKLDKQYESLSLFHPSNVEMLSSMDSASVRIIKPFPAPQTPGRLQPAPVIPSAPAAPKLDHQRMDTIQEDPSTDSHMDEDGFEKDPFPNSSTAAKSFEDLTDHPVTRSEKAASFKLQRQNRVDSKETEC
Nature of the experiment: Procedure for Measuring TACE Inhibition. In kind it is biochemical. To be noted: 1 µM; Examples 110-168. The method, then: Using 96-well black microtiter plates, each well receives a solution composed of 10 µL TACE (Immunex, final concentration 1µg/mL), 70µL Tris buffer, pH 7.4 containing 10% glycerol (final concentration 10 mM), and 10 µL of test compound solution in DMSO (final concentration 1µM, DMSO concentration <1%) and incubated for 10 minutes at room temperature. The reaction is initiated by addition of a fluorescent peptidyl substrate (final concentration 100 µM) to each well and then shaking on a shaker for 5 sec. The reaction is read (excitation 340 nm, emission 420 nm) for 10 min. and the increase in fluorescence over time is plotted as a linear line. The slope of the line is calculated and represents the reaction rate. The linearity of the reaction rate is confirmed (r^2 >0.85). The mean (x±sem) of the control rate is calculated and compared for statistical significance (p<0.05) with drug-treated rates using Dunnett's multiple comparison test.
With “(1-Hydroxycarbamoyl-propane-1-sulfonyl)-acetic acid hydroxyamide [Example 120]”, the “TACE % inhibition at 1 µM” value came out at 19.9%.

Still in this experiment, the particulars now being: 1 µM; Examples 169-240.
Take “Ethanesulfonic acid 4(1-hydroxycarbamoyl-heptylsulfanyl)-hydroxyamide [Example 234]”: the “TACE % inhibition at 1 µM” value was 18.4%.

The experiment is the same for the next values; noted with them: Examples 169-240; read-out: TACE IC50.
As a reminder, the IC50 is the midpoint of a concentration-inhibition curve. For `CCCCCCC(C(=O)NO)S(=O)(=O)c1ccc(-c2ccc(Cl)s2)cc1` (stereo not shown) [Example 224, 2-[4-(5-Chloro-thiophen-2-yl)-benzenesulfonyl]-octanoic acid hydroxyamide], the IC50 is 404 nM.

On to `CCCCCCC(Sc1ccc(NCCCN2CCOCC2)cc1)C(=O)NO` (stereo not shown) [Example 225, 2-[4-(3-morpholin-4-yl-propylamino)-phenylsulfanyl]-octanoic acid hydroxyamide], for which the IC50 came to 96.6 nM.

Staying with this experiment, now noted: read-out: TACE % inhibition at 1 µM; 1 µM; Examples 169-240.
What is called inhibition is the drop in the measured response relative to a control, in per cent. Take `CCCCCCC(C(=O)NO)S(=O)(=O)c1ccc(-c2ccc(Cl)s2)cc1` (stereo not shown) [Example 224, 2-[4-(5-Chloro-thiophen-2-yl)-benzenesulfonyl]-octanoic acid hydroxyamide]: the inhibition at 1 µM came to 75%. With `CCCCCCC(Sc1ccc(NCCCN2CCOCC2)cc1)C(=O)NO` (stereo not shown) [Example 225, 2-[4-(3-morpholin-4-yl-propylamino)-phenylsulfanyl]-octanoic acid hydroxyamide], the inhibition at 1 µM was found to be 114%.

Another experiment has as its target MMP 13 (Homo sapiens, UniProt P45452). Nature of the experiment: MMP 13 inhibition (HTS; method not described). The following applies: 0.2 µM, HTS. It counts as biochemical.
With `CCC(C(=O)NO)S(=O)(=O)C(C)C(=O)NO` (stereo not shown) [Example 124, (1-Hydroxycarbamoyl-propane-1-sulfonyl)-propionic acid hydroxyamide], the “MMP 13 % inhibition at 0.2 µM (HTS)” value turned out to be 0%.

Still in this experiment, the particulars now being: read-out: MMP 13 % inhibition (HTS); HTS.
As to `CCCCCCC(C(=O)NO)S(=O)(=O)c1cccc2cccnc12` (stereo not shown) [Example 196, 2-(Quinoline-8-sulfonyl)-octanoic acid hydroxyamide], the inhibition is 11%.

Still in this experiment, the particulars now being: read-out: MMP 13 % inhibition at 36 nM (HTS); 36 nM, HTS.
As for `CCCCCCC(Sc1nc2ccccc2o1)C(=O)NO` (stereo not shown) [Example 169, 2-(2-Benzooxazol-2-ylsulfanyl)-octanoic acid hydroxyamide], the inhibition at 0.036 µM was found to be 28%. On to `CCCCCCC(Sc1nc2ccccc2s1)C(=O)NO` (stereo not shown) [Example 170, 2-(2-Benzothiazol-2-ylsulfanyl)-octanoic acid hydroxyamide], for which the inhibition at 0.036 µM was 32%. For the compound `CCCCCCC(SCCc1ccccn1)C(=O)NO` (stereo not shown) [Example 173, 2-(2-Pyridin-2-yl-ethylsulfanyl)-octanoic acid hydroxyamide], the inhibition at 0.036 µM turned out to be 18%.

As for `CCCCCCC(C(=O)NO)[S+]([O-])c1nc2ccccc2[nH]1` (stereo not shown) [Example 177, 2-(2-Benzimidazol-2-ylsulfinyl)-octanoic acid hydroxyamide], the inhibition at 0.036 µM came to 5%. For the compound `CCCCCCC(C(=O)NO)[S+]([O-])c1ccccn1` (stereo not shown) [Example 178, 2-(2-Pyridine-2-sulfinyl)-octanoic acid hydroxyamide], the inhibition at 0.036 µM is -10%.

Consider `CCCCCCC(C(=O)NO)S(=O)(=O)c1[nH]c2ccccc2[n+]1[O-]` (stereo not shown) [Example 181, 2-(3-Oxy-1H-benzimidazole-2-sulfonyl)-octanoic acid hydroxyamide], for which the inhibition at 0.036 µM is 6%. `CCCCCCC(C(=O)NO)S(=O)(=O)CCc1cccc[n+]1[O-]` (stereo not shown) [Example 183, 2-[2-(1-Oxy-pyridin-2-yl)-ethanesulfonyl]-octanoic acid hydroxyamide]: the inhibition at 0.036 µM was -6%.

For `CCCCCCC(C(=O)NO)[S+]([O-])CC(=O)Nc1ccc2ccccc2c1` (stereo not shown) [Example 191, 2-(Naphthalen-2-ylcarbamoylmethanesulfinyl)-octanoic acid hydroxyamide], the inhibition at 0.036 µM was -45%.

For the compound `CCCCCCC(C(=O)NO)S(=O)(=O)c1nccs1` (stereo not shown) [Example 195, 2-(Thiazol-2-ylsulfonyl)-octanoic acid hydroxyamide], the inhibition at 0.036 µM was -9%. As to `CCCCCCC(C(=O)NO)S(=O)(=O)c1cccc2cccnc12` (stereo not shown) [Example 196, 2-(Quinoline-8-sulfonyl)-octanoic acid hydroxyamide], the inhibition at 0.036 µM was -18%. Consider `CCCCCCC(C(=O)NO)S(=O)(=O)CC1NC(=O)NC1=O` (stereo not shown) [Example 198, 2-(2,5-Dioxo-imidazolidin-4-ylmethylsulfonyl)-octanoic acid hydroxyamide], for which the inhibition at 0.036 µM is -39%.

For the compound `CCCCCCC(Sc1ccc(OCc2ccccc2)cc1)C(=O)NO` (stereo not shown) [Example 199, 2-(4-Benzyloxy-phenylsulfanyl)-octanoic acid hydroxyamide], the inhibition at 0.036 µM was -10%. `CCCCCCC(Sc1ccc(OS(=O)(=O)c2ccccc2)cc1)C(=O)NO` (stereo not shown) [Example 232, Benzenesulfonic acid 4-(1-hydroxycarbamoyl-heptylsulfanyl)-phenyl ester]: the inhibition at 0.036 µM came out at 30%.

The experiment is the same for the next values; noted with them: read-out: MMP 13 % inhibition at 0.2 µM (HTS); 0.2 µM, HTS.
Consider `CC(=O)Nc1ccc([S+]([O-])C(Cc2ccccc2)C(=O)NO)cc1` (stereo not shown) [Example 129, 2-(4-Acetylamino-benzenesulfinyl)-N-hydroxy-3-phenyl-propionamide], for which the inhibition at 0.2 µM came to 90%. For `COC(=O)CCC(Sc1ccc(SC)cc1)C(=O)NO` (stereo not shown) [Example 131, 4-Hydroxycarbamoyl-4-(4-methanesulfanyl-phenylsulfanyl)-butyric acid methyl ester], the inhibition at 0.2 µM is 71%.

Turning to `O=C(CCC(C(=O)NO)[S+]([O-])c1ccc(Br)cc1)NO` (stereo not shown) [Example 135, 4-Hydroxycarbamoyl-4-(4-bromo-benzenesulfinyl)-butyric acid hydroxyamide], the inhibition at 0.2 µM was 79%. As for `O=C(CCC(C(=O)NO)[S+]([O-])c1ccccc1C(F)(F)F)NO` (stereo not shown) [Example 138, 4-Hydroxycarbamoyl-4-(2-trifluoromethyl-benzenesulfinyl)-butyric acid hydroxyamide], the inhibition at 0.2 µM came to 20%. Turning to `O=C(CCC(C(=O)NO)S(=O)(=O)c1ccccc1C(F)(F)F)NO` (stereo not shown) [Example 139, 4-Hydroxycarbamoyl-4-(2-trifluoromethyl-benzenesulfonyl)-butyric acid hydroxyamide], the inhibition at 0.2 µM was 8%. `CCCCCCCCC(Sc1cccc(OC)c1)C(=O)NO` (stereo not shown) [Example 140, 2-(3-methoxy-benzenesulfanyl)decanoic acid hydroxamide]: the inhibition at 0.2 µM came out at 29%. With `CCCCCCCCC(C(=O)NO)[S+]([O-])c1cccc(OC)c1` (stereo not shown) [Example 141, 2-(3-Methoxy-benzenesulfinyl)decanoic acid hydroxamide], the inhibition at 0.2 µM amounted to 32%. With `CCCCCCCCC(C(=O)NO)S(=O)(=O)c1cccc(OC)c1` (stereo not shown) [Example 142, 2-(3-Methoxy-benzenesulfonyl)decanoic acid hydroxamide], the inhibition at 0.2 µM was found to be 69%. On to `CCCCCCCCC(C(=O)NO)[S+]([O-])c1ccc([S+](C)[O-])cc1` (stereo not shown) [Example 144, 2-(4-methanesulfinyl-benzenesulfinyl)decanoic acid hydroxamide], for which the inhibition at 0.2 µM amounted to 38%. Still for that read-out and setting: the figure for `CCCCCCCCC(C(=O)NO)S(=O)(=O)c1ccc(S(C)(=O)=O)cc1` (stereo not shown) [Example 145, 2-(4-methanesulfonyl-benzenesulfonyl)decanoic acid hydroxamide] is 45%; for `CSc1ccc(SC(COCc2ccccc2)C(=O)NO)cc1` (stereo not shown) [Example 146, 3-benzyloxy-N-hydroxy-2-(4-methanesulfanyl-benzenesulfanyl)-propionamide] it is 68%. Take `C[S+]([O-])c1ccc([S+]([O-])C(COCc2ccccc2)C(=O)NO)cc1` (stereo not shown) [Example 147, 3-Benzyloxy-N-hydroxy-2-(4-methanesulfinyl-benzenesulfinyl)-propionamide]: the inhibition at 0.2 µM was 73%. On to `O=C(NO)C(Cc1cnc[nH]1)Sc1ccccc1Br` (stereo not shown) [Example 152, 2-(2-bromo-benzenesulfanyl)-N-hydroxy-3-(3H-imidazol-4-yl)-propionamide], for which the inhibition at 0.2 µM is 9%. Turning to `N=C(N)NCCCC(Sc1cccc(F)c1)C(=O)NO` (stereo not shown) [Example 155, 2-(3-fluorophenylsulfanyl)-5-guanidino-pentanoic acid hydroxyamide], the inhibition at 0.2 µM was found to be 31%. For `N=C(N)NCCCC(Sc1ccccc1Br)C(=O)NO` (stereo not shown) [Example 157, 2-(2-Bromosulfanyl)-5-guanidino-pentanoic acid hydroxyamide], the inhibition at 0.2 µM was determined as 19%. `N=C(N)NCCCC(C(=O)NO)[S+]([O-])c1ccccc1Br` (stereo not shown) [Example 158, 2-(2-Bromosulfinyl)-5-guanidino-pentanoic acid hydroxyamide]: the inhibition at 0.2 µM came out at 33%.

As for `N=C(N)NCCCC(C(=O)NO)S(=O)(=O)c1ccccc1Br` (stereo not shown) [Example 159, 2-(2-Bromosulfonyl)-5-guanidino-pentanoic acid hydroxyamide], the inhibition at 0.2 µM came to 49%.

Turning to `CCCCCCC(Sc1cc(Cl)ccc1Cl)C(=O)NO` (stereo not shown) [Example 160, 2-(2,5-dichlorobenzenesulfanyl)-octanoic acid hydroxyamide], the inhibition at 0.2 µM came out at 14%. Same read-out and setting: the result for `CCCCCCC(Sc1cccc(OC)c1)C(=O)NO` (stereo not shown) [Example 162, 2-(3-Methoxybenzenesulfanyl)-ocranoic acid hydroxyamide] reads 13%.

Regarding `CCCCCCC(C(=O)NO)S(=O)(=O)c1cccc(OC)c1` (stereo not shown) [Example 164, 2-(3-Methoxybenzenesulfonyl)-octanoic acid hydroxyamide], the inhibition at 0.2 µM was 74%. In the case of `CCCCCCC(Sc1ccc(OC)c(OC)c1)C(=O)NO` (stereo not shown) [Example 165, 2-(3,4-Dimethoxybenzenesulfanyl)-octanoic acid hydroxyamide], the inhibition at 0.2 µM is 71%. With `CCCCCCC(Sc1nc2ccccc2[nH]1)C(=O)NO` (stereo not shown) [Example 168, 2-(2-Benzimidazol-2-ylsulfanyl)-octanoic acid hydroxyamide], the inhibition at 0.2 µM was found to be 21%.

Still in this experiment, the particulars now being: read-out: MMP 13 % inhibition at 0.36 mM (HTS).
With `CCCCCCC(C(=O)NO)S(=O)(=O)c1[nH]c2ccccc2[n+]1[O-]` (stereo not shown) [Example 181, 2-(3-Oxy-1H-benzimidazole-2-sulfonyl)-octanoic acid hydroxyamide], the inhibition at 360 µM turned out to be 35%.

The experiment is the same for the next values; noted with them: read-out: MMP 13 % inhibition at 3.6 mM (HTS).
As for `CCCCCCC(C(=O)NO)[S+]([O-])c1ccccn1` (stereo not shown) [Example 178, 2-(2-Pyridine-2-sulfinyl)-octanoic acid hydroxyamide], the inhibition at 3600 µM was 39%. Consider `CCCCCCC(C(=O)NO)S(=O)(=O)c1[nH]c2ccccc2[n+]1[O-]` (stereo not shown) [Example 181, 2-(3-Oxy-1H-benzimidazole-2-sulfonyl)-octanoic acid hydroxyamide], for which the inhibition at 3600 µM amounted to 62%.

Values taken from patent EP0970046B1, “N-HYDROXY-2-(ALKYL, ARYL, OR HETEROARYL SULFANYL, SULFINYL OR SULFONYL)-3-SUBSTITUTED ALKYL, ARYL OR HETEROARYLAMIDES AS MATRIX METALLOPROTEINASE INHIBITORS” (Wyeth Holdings Corporation, priority 1997, dated 1998).
